Experimental data from PMC9030254, “Target Hopping from Protein Kinases to PXR: Identification of Small-Molecule Protein Kinase Inhibitors as Selective Modulators of Pregnane X Receptor from TüKIC Library” (Cells, 2022).

Legend:
Test in all cases: Kinase profiling
Assay type in all cases: biochemical
PIM3 = molecular target: T1, PIM3 (Homo sapiens, UniProt Q86V86)
T1 construct: purchased ProQinase (Freiburg, Germany)
Method: (§1) The analysis was performed by ProQinase (Freiburg, Germany).

TEC = molecular target: T2, TEC (Homo sapiens, UniProt P42680)
T2 construct: purchased ProQinase (Freiburg, Germany)
T2 sequence (P42680 1-631): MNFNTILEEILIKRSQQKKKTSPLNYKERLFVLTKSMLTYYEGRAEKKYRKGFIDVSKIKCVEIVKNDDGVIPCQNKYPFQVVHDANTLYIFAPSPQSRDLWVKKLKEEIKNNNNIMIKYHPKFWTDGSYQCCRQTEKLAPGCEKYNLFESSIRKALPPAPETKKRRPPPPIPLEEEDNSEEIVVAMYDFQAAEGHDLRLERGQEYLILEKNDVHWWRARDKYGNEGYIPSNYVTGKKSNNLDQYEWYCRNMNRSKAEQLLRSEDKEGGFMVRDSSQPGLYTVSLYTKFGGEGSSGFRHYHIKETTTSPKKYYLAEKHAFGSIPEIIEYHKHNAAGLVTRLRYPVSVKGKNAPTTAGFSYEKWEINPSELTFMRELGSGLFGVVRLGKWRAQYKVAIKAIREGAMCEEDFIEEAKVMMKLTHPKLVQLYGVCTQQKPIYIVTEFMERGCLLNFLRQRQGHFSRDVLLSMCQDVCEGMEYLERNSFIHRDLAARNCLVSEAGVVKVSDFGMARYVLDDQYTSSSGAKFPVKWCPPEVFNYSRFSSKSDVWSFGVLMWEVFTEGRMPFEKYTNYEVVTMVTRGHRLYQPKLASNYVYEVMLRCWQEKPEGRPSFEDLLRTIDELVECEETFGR
Method: as §1

CDK6/CycD2 = molecular target: T3, CDK6/CycD2 (Homo sapiens, UniProt Q00534)
T3 construct: purchased ProQinase (Freiburg, Germany)
T3 sequence (Q00534 whole entry): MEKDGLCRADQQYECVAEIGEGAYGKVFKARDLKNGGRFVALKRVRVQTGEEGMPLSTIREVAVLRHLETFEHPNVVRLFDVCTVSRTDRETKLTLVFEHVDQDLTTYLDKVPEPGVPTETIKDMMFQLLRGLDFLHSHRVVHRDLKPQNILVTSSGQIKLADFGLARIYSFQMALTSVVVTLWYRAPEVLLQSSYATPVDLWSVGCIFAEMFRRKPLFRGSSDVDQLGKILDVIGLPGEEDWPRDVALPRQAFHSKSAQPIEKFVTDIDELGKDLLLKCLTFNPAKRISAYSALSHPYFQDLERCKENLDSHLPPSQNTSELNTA
T3 sequence (P30279 whole entry partner): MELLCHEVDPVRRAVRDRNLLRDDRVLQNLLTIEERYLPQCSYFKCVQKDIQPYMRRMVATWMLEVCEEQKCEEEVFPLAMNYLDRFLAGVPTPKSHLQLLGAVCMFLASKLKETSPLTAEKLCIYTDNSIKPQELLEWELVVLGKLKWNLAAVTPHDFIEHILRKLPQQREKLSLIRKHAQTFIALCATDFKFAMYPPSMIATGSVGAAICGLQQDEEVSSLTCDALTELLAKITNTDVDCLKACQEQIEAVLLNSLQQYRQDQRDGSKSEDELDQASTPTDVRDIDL
Method: as §1

PASK = molecular target: T4, PASK (Homo sapiens, UniProt Q96RG2)
T4 construct: purchased ProQinase (Freiburg, Germany)
T4 sequence (Q96RG2 whole entry): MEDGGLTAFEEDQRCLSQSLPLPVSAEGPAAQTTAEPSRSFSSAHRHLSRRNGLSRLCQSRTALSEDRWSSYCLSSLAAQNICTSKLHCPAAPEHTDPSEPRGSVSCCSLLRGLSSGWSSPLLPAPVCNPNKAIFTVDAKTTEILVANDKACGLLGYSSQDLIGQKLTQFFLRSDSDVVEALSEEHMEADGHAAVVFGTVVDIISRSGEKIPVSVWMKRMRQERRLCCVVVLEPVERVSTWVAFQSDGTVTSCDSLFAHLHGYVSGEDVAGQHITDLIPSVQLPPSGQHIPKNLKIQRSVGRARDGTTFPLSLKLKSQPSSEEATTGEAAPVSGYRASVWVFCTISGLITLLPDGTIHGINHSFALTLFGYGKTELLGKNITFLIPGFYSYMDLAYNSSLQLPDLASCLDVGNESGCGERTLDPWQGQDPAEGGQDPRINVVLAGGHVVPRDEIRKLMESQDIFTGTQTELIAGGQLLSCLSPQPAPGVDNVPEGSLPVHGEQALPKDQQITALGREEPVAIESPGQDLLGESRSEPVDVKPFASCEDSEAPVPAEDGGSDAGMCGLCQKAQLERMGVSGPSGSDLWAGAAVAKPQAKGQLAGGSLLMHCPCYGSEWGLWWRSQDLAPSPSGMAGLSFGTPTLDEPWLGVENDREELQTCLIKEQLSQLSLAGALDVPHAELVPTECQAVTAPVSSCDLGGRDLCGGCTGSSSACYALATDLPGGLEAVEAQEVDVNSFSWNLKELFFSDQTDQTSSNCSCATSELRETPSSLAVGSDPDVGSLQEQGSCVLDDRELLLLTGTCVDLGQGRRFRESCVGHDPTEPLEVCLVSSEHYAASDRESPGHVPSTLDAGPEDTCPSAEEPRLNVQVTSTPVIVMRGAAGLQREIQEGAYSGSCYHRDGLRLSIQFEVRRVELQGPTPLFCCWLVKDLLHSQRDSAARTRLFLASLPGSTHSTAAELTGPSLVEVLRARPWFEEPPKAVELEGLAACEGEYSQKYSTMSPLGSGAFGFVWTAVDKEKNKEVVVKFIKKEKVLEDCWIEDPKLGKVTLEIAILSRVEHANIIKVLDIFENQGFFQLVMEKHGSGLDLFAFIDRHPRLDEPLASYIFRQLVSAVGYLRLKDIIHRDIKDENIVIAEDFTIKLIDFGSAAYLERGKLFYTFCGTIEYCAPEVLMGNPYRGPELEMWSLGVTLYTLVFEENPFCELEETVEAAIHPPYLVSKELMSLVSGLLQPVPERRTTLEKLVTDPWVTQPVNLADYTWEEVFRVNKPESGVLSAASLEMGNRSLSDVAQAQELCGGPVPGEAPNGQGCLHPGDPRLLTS
Method: as §1

MUSK = molecular target: T5, MUSK (Homo sapiens, UniProt O15146)
T5 construct: purchased ProQinase (Freiburg, Germany)
T5 sequence (O15146 24-869): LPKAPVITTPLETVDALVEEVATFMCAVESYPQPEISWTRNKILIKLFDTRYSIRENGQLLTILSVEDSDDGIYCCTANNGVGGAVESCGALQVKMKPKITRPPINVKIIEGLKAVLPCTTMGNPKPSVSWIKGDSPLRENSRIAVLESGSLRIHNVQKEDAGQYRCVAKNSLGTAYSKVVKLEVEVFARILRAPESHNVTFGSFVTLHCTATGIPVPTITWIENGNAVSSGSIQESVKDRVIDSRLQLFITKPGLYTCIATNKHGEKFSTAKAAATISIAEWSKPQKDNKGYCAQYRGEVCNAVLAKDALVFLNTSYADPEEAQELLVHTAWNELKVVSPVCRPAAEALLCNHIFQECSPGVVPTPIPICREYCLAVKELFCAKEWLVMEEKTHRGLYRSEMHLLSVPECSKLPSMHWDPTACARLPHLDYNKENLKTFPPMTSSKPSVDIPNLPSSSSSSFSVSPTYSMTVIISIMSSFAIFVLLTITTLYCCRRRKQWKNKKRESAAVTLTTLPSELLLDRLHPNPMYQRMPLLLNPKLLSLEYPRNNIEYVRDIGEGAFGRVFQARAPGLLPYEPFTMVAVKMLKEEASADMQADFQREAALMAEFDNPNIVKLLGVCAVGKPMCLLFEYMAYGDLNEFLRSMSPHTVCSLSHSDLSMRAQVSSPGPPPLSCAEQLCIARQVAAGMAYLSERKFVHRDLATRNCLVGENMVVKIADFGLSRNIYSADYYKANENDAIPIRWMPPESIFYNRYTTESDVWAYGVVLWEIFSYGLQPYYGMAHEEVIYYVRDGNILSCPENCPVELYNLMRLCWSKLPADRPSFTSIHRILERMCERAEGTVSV
Method: as §1

RPS6KA3 = molecular target: T6, RPS6KA3 (Homo sapiens, UniProt P51812)
T6 construct: purchased ProQinase (Freiburg, Germany)
T6 sequence (P51812 whole entry): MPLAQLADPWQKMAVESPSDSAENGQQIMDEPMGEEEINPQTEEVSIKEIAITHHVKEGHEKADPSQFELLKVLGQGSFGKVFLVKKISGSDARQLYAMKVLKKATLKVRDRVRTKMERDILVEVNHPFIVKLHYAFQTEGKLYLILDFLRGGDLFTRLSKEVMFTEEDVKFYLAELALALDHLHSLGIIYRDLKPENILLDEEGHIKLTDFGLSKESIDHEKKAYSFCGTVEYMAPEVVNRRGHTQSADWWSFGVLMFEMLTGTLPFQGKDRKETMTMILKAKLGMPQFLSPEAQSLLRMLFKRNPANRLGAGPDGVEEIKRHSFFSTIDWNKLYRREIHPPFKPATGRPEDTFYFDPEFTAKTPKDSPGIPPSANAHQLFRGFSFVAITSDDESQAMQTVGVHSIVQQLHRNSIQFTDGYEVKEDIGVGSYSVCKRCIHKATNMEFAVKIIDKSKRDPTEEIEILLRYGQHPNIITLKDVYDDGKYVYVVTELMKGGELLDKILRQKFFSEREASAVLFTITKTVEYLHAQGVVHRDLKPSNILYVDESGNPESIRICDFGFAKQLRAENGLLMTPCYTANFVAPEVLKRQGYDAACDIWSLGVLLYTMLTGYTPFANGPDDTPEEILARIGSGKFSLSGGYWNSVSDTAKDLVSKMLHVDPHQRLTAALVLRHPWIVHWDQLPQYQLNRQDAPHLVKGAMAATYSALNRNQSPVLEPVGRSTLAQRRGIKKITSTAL
Method: as §1

PDGFRbeta = molecular target: T7, PDGFRbeta (Homo sapiens, UniProt P09619)
T7 construct: purchased ProQinase (Freiburg, Germany)
Method: as §1

PKCdelta = molecular target: T8, PKCdelta (Homo sapiens, UniProt Q05655)
T8 construct: purchased ProQinase (Freiburg, Germany)
T8 sequence (Q05655 whole entry): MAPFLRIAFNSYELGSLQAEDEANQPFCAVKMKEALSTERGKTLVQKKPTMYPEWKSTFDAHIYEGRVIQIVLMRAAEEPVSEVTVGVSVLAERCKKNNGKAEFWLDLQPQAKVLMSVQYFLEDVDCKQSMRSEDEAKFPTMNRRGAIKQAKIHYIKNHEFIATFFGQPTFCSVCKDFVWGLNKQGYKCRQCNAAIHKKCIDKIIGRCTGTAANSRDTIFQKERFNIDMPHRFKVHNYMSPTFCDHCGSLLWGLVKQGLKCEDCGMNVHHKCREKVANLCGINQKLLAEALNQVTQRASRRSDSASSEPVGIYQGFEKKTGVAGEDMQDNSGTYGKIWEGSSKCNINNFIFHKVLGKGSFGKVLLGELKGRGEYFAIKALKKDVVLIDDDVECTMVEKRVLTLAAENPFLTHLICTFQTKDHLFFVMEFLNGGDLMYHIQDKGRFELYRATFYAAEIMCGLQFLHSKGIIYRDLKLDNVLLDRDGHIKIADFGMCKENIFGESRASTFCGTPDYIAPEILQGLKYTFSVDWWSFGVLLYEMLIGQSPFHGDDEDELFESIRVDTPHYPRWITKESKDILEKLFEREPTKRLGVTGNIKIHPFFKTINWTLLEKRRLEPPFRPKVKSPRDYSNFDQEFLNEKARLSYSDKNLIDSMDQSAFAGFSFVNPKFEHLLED
Method: as §1

PRKX = molecular target: T9, PRKX (Homo sapiens, UniProt P51817)
T9 construct: purchased ProQinase (Freiburg, Germany)
T9 sequence (P51817 1-358): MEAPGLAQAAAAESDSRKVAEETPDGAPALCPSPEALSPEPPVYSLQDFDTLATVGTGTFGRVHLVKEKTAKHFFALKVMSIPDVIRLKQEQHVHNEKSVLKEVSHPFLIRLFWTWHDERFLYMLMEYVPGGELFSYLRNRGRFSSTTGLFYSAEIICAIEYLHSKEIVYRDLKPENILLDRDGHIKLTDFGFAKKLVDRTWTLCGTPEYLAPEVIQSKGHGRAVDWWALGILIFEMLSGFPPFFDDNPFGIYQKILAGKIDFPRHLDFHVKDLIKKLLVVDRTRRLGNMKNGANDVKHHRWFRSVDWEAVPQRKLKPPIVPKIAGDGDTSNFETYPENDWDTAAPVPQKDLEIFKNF
Method: as §1

CK2alpha1 = molecular target: T10, CK2alpha1 (Homo sapiens, UniProt P68400)
T10 construct: purchased ProQinase (Freiburg, Germany)
T10 sequence (P68400 whole entry): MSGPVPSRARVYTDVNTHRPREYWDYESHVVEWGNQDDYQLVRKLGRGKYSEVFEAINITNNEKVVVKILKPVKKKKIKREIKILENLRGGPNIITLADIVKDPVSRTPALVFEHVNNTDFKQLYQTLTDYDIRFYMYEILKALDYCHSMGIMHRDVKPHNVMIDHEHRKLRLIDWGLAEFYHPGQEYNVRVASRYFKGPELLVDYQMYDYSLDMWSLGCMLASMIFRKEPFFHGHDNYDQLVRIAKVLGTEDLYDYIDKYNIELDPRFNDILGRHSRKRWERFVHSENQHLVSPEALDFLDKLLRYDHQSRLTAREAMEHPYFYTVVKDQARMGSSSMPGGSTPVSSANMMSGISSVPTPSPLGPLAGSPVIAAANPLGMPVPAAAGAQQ
Method: as §1

STK23 = molecular target: T11, STK23 (Homo sapiens, UniProt Q9UPE1)
T11 construct: purchased ProQinase (Freiburg, Germany)
T11 sequence (Q9UPE1 whole entry): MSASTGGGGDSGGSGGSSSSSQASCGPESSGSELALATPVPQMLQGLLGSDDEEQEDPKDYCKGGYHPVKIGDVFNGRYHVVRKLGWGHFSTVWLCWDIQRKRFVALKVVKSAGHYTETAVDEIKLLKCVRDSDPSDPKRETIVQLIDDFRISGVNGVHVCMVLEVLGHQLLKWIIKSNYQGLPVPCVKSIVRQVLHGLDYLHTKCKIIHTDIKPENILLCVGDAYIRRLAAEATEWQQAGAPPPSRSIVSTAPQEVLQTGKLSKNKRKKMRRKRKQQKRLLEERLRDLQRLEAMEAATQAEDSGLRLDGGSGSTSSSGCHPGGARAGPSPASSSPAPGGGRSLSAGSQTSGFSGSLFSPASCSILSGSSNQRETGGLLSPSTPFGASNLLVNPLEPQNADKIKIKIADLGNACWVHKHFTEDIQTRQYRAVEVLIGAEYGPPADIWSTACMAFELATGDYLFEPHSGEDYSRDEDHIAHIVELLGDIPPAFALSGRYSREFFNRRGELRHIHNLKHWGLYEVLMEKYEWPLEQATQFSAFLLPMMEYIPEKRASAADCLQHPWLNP
Method: as §1

Row | Compound | Residual activity (PIM3; 1.0E-05 M) | Residual activity (PIM3; 1.0E-06 M) | Residual activity (TEC; 1.0E-05 M) | Residual activity (TEC; 1.0E-06 M) | Residual activity (CDK6/CycD2; 1.0E-05 M) | Residual activity (CDK6/CycD2; 1.0E-06 M) | Residual activity (PASK; 1.0E-05 M) | Residual activity (PASK; 1.0E-06 M) | Residual activity (MUSK; 1.0E-05 M) | Residual activity (MUSK; 1.0E-06 M) | Residual activity (RPS6KA3; 1.0E-05 M) | Residual activity (RPS6KA3; 1.0E-06 M) | Residual activity (PDGFRbeta; 1.0E-05 M) | Residual activity (PDGFRbeta; 1.0E-06 M) | Residual activity (PKCdelta; 1.0E-05 M) | Residual activity (PKCdelta; 1.0E-06 M) | Residual activity (PRKX; 1.0E-05 M) | Residual activity (PRKX; 1.0E-06 M) | Residual activity (CK2alpha1; 1.0E-05 M) | Residual activity (CK2alpha1; 1.0E-06 M) | also measured
1 | O=C(Nc1ccc(F)c(Nc2ccc3c(c2)CCCCC3=O)c1)c1cccc(F)c1 [Compound 109] | 102 % of control | 89 % of control | 80 % of control | 94 % of control | 94 % of control | 105 % of control | 97 % of control | 95 % of control | 83 % of control | 97 % of control | 84 % of control | 90 % of control | 99 % of control | 98 % of control | 66 % of control | 107 % of control | 85 % of control | 95 % of control | 98 % of control | 102 % of control | Residual activity (STK23; 1.0E-05 M): 76 % of control; Residual activity (STK23; 1.0E-06 M): 78 % of control
2 | O=C(Cc1ccccc1)Nc1ccc(F)c(Nc2ccc3c(c2)CCCCC3=O)c1 [Compound 100] | 89 % of control | 90 % of control | 69 % of control | 88 % of control | 97 % of control | 97 % of control | 97 % of control | 107 % of control | 93 % of control | 98 % of control | 80 % of control | 97 % of control | 99 % of control | 100 % of control | 82 % of control | 98 % of control | 88 % of control | 102 % of control | 106 % of control | 102 % of control | Residual activity (STK23; 1.0E-05 M): 79 % of control; Residual activity (STK23; 1.0E-06 M): 89 % of control
